Data reported in patent publication US20250326753A1, “DUAL CXCR4-BTK INHIBITORS” (X4 Pharmaceuticals, Inc., priority 2022, published 2025).
Like-named read-outs stand apart in the source and are kept apart here.

Assays:
Assay type in all cases: biochemical
DDR2 = target: T1, DDR2 (Homo sapiens, UniProt Q16832); assay: PanQinase kinase panel: DDR2
T1 construct: purchased Reaction Biology Europe GmbH
T1 sequence (Q16832 22-855): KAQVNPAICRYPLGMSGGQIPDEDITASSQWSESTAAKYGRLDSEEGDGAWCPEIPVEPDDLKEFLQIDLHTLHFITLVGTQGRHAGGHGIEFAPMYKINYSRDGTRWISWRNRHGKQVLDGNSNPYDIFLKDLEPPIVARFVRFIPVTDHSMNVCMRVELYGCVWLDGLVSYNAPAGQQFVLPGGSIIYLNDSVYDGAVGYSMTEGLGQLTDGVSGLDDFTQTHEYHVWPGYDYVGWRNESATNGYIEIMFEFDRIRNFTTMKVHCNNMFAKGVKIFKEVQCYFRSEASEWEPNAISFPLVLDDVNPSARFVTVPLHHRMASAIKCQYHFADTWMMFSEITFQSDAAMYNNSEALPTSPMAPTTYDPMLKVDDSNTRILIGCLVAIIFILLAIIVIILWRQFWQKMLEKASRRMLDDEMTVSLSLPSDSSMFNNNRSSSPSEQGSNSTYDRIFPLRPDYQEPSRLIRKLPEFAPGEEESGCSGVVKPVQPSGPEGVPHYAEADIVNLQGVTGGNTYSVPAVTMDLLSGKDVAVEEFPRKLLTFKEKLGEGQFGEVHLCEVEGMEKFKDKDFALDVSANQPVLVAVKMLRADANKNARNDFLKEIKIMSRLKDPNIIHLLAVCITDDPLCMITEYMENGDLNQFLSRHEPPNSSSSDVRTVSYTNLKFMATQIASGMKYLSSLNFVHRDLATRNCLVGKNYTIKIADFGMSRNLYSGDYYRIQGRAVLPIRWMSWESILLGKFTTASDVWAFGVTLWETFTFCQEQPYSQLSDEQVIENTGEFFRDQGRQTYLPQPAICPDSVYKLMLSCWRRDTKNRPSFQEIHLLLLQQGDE
Method: (§1) Screening procedures were performed in accordance with the company's on-line protocol [accessed on-line Mar.
(§2) For each kinase, the median value of the cpm of three wells was defined as “low control” (n=3). This value reflects unspecific binding of radioactivity to the plate in the absence of a protein kinase but in the presence of the substrate. Additionally, for each kinase the median value of the cpm of three other wells was taken as the “high control,” i.e. full activity in the absence of any inhibitor (n=3). The difference between high and low control of each enzyme was taken as 100% activity.
(§3) As part of the data evaluation the low control of each kinase was subtracted from the high control value as well as from their corresponding “compound values”. The residual activity (in %) for each compound well was calculated by using the following formula: Res. Activity (%)=100×[(signal of compound−low control)/(high control−low control)].

FGFR1 = target: T2, FGFR1 (Homo sapiens, UniProt P11362); assay: PanQinase kinase panel: FGFR1; conditions: read-out: INHIBITORY EFFECT @ 1 uM: FGFR1
T2 construct: purchased Reaction Biology Europe GmbH
Method: as §1, §2, §3

FER = target: T3, FER (Homo sapiens, UniProt P16591); assay: PanQinase kinase panel: FER; conditions: read-out: INHIBITORY EFFECT @ 1 uM: FER
T3 construct: purchased Reaction Biology Europe GmbH
Method: as §1, §2, §3

ERBB2 = target: T4, ERBB2 (Homo sapiens, UniProt P04626); assay: PanQinase kinase panel: ERBB2; conditions: read-out: INHIBITORY EFFECT @ 1 uM: ERBB2
T4 construct: purchased Reaction Biology Europe GmbH
Method: as §1, §2, §3

BMX = target: T5, BMX (Homo sapiens, UniProt P51813); assay: PanQinase kinase panel: BMX; conditions: read-out: INHIBITORY EFFECT @ 1 uM: BMX
T5 construct: purchased Reaction Biology Europe GmbH
T5 sequence (P51813 1-675): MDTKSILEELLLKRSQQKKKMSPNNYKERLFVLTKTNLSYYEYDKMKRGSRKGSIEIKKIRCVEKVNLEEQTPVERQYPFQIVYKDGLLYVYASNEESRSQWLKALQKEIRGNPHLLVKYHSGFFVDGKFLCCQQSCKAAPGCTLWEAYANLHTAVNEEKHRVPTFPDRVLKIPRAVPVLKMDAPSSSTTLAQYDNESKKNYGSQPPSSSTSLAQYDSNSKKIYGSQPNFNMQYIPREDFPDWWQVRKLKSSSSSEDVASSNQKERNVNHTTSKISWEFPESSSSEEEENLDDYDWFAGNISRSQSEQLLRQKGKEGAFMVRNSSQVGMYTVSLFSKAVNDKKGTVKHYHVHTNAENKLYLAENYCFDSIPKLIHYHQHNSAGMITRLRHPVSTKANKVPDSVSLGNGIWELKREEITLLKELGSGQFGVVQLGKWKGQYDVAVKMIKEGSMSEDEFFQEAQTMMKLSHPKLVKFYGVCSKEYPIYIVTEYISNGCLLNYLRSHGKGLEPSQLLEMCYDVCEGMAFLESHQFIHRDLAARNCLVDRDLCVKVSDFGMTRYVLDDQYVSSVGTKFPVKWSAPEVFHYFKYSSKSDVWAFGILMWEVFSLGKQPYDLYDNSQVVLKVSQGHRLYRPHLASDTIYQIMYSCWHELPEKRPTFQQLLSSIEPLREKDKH
Method: as §1, §2
(§4) As part of the data evaluation the low control of each kinase was subtracted from the high control value as well as from their corresponding “compound values”.

EGFR = target: T6, EGFR (Homo sapiens, UniProt P00533); assay: PanQinase kinase panel: EGFR; conditions: read-out: INHIBITORY EFFECT @ 1 uM: EGFR
T6 construct: purchased Reaction Biology Europe GmbH
Method: as §1, §2, §3

MAP4K5 = target: T7, MAP4K5 (Homo sapiens, UniProt Q9Y4K4); assay: PanQinase kinase panel: MAP4K5; conditions: read-out: INHIBITORY EFFECT @ 1 uM: MAP4K5
T7 construct: purchased Reaction Biology Europe GmbH
Method: as §1, §2, §3

FGR = target: T8, FGR (Homo sapiens, UniProt P09769); assay: PanQinase kinase panel: FGR; conditions: read-out: INHIBITORY EFFECT @ 1 uM: FGR
T8 construct: purchased Reaction Biology Europe GmbH
Method: as §1, §2, §4

PAK1 = target: T9, PAK1 (Homo sapiens, UniProt Q13153); assay: PanQinase kinase panel: PAK1; conditions: read-out: INHIBITORY EFFECT @ 1 uM: PAK1
T9 construct: purchased Reaction Biology Europe GmbH
Method: as §1, §2, §3

KIT = target: T10, KIT (Homo sapiens, UniProt P10721); assay: PanQinase kinase panel: KIT; conditions: read-out: INHIBITORY EFFECT @ 1 uM: KIT
T10 construct: purchased Reaction Biology Europe GmbH
Method: as §1, §2, §3

PDGFRbeta = target: T11, PDGFRbeta (Homo sapiens, UniProt P09619); assay: PanQinase kinase panel: PDGFRbeta; conditions: read-out: INHIBITORY EFFECT @ 1 uM: PDGFRbeta
T11 construct: purchased Reaction Biology Europe GmbH
Method: as §1, §2, §3

LIMK2 = target: T12, LIMK2 (Homo sapiens, UniProt P53671); assay: PanQinase kinase panel: LIMK2
T12 construct: purchased Reaction Biology Europe GmbH
Method: as §1, §2, §3

[1] = at 1 μM, read-out: inhibition of DDR2
[2] = read-out: INHIBITORY EFFECT @ 1 uM: DDR2
[3] = read-out: INHIBITORY EFFECT @ 1 uM: LIMK2

T4 sequence (P04626 23-1255): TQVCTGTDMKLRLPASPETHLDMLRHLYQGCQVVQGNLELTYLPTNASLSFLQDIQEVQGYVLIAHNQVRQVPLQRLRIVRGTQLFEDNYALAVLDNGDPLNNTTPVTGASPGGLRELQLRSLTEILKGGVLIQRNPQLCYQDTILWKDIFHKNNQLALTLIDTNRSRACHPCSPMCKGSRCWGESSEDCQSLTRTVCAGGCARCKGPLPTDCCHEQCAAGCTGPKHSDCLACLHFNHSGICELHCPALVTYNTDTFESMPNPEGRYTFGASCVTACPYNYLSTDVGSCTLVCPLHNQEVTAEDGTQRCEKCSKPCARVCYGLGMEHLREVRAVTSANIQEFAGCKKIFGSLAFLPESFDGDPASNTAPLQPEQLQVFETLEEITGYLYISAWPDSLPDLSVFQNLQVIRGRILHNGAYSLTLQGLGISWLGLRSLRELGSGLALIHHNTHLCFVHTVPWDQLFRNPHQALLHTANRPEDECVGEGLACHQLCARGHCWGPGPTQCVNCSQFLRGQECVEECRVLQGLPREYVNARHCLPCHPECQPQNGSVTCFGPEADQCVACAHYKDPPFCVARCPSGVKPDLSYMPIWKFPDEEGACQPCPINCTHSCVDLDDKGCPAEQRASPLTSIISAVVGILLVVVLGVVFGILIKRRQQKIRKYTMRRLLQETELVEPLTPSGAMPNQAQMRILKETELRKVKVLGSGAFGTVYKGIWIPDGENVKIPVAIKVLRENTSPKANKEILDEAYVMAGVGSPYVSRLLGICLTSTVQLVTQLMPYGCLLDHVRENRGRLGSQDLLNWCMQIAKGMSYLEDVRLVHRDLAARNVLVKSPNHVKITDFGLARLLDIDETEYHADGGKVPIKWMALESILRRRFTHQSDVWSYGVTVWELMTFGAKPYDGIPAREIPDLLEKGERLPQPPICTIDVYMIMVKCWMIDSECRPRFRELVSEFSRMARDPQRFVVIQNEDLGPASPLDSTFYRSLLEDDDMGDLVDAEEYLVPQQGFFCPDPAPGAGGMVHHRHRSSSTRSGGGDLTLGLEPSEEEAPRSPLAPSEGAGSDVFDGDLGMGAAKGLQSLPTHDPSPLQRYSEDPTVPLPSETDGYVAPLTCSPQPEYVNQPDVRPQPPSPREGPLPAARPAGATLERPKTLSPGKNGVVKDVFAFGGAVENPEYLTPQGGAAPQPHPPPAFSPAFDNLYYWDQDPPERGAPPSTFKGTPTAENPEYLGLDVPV
T8 sequence (P09769 whole entry): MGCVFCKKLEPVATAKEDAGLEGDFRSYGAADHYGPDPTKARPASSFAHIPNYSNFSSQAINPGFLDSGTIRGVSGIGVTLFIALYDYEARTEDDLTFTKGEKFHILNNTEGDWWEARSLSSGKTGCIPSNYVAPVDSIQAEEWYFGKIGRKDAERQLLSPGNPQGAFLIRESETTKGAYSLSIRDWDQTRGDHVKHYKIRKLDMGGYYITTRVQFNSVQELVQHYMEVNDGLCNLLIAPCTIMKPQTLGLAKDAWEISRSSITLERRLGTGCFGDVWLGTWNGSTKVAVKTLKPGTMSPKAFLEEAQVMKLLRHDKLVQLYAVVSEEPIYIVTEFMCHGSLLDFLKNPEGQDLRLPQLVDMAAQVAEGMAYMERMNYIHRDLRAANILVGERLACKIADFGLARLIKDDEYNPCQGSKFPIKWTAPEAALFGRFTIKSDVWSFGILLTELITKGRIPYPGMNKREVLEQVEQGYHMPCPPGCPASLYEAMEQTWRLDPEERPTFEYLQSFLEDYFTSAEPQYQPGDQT
T12 sequence (P53671 whole entry): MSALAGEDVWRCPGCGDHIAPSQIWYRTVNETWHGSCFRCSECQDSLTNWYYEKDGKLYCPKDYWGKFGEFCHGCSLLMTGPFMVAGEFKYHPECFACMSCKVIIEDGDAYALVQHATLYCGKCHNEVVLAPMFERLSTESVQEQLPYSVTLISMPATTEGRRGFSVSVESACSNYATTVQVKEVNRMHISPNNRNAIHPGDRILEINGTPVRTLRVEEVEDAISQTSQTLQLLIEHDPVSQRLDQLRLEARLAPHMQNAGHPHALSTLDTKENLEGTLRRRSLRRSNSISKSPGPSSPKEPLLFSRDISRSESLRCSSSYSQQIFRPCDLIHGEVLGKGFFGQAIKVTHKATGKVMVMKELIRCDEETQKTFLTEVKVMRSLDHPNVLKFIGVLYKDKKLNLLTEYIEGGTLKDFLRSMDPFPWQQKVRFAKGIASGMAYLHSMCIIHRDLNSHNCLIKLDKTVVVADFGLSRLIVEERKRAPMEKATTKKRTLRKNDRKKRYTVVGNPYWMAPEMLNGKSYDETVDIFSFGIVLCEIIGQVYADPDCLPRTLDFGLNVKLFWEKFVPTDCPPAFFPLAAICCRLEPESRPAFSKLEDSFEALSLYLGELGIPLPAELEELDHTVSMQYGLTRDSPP
T11 sequence (P09619 33-1106): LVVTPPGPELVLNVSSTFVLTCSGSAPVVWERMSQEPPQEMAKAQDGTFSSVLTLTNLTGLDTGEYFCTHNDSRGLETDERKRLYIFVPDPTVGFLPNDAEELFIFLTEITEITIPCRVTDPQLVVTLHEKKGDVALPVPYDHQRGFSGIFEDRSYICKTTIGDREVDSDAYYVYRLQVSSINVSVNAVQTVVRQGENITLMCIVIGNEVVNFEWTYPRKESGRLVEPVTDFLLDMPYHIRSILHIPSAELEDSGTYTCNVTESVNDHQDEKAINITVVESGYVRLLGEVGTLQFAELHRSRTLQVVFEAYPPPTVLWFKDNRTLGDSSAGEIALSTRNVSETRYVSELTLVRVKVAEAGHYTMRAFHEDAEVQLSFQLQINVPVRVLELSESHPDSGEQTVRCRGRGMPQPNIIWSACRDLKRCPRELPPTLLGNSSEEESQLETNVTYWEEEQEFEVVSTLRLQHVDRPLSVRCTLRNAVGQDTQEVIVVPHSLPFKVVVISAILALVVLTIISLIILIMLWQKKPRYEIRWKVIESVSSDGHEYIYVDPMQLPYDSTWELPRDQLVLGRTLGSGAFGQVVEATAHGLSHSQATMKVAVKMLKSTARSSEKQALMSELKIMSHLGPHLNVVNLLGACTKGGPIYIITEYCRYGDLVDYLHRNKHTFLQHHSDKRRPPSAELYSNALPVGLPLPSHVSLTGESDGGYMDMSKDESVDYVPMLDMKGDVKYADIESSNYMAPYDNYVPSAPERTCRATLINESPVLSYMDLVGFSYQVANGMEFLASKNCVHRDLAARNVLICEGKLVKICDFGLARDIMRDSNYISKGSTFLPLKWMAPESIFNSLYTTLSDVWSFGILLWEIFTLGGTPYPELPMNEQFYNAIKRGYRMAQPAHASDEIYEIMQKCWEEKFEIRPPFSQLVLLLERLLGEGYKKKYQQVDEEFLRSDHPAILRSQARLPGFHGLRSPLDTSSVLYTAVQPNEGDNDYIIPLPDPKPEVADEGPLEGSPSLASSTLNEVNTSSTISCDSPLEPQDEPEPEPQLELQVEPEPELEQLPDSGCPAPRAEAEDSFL
T7 sequence (Q9Y4K4 whole entry): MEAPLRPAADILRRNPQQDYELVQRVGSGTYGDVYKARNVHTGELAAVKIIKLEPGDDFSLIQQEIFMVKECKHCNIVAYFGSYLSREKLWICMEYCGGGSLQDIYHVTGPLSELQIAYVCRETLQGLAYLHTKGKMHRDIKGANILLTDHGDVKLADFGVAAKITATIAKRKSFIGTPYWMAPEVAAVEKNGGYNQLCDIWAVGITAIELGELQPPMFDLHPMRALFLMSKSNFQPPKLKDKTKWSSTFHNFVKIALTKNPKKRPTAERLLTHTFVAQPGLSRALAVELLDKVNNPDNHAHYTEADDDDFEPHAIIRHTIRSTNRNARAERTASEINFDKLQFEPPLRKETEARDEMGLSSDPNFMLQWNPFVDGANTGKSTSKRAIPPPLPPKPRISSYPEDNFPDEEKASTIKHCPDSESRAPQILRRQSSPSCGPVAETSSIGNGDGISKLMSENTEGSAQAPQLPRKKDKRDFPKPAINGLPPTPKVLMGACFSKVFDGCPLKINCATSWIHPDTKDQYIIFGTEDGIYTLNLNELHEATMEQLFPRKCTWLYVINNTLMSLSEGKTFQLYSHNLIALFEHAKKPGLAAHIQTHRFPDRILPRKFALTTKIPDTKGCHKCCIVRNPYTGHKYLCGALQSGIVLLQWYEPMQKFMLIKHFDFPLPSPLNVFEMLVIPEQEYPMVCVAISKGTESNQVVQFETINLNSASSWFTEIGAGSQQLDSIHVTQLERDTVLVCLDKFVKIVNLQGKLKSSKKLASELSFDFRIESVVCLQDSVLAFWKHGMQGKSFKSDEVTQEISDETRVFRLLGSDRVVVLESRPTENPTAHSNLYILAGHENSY
T9 sequence (Q13153 whole entry): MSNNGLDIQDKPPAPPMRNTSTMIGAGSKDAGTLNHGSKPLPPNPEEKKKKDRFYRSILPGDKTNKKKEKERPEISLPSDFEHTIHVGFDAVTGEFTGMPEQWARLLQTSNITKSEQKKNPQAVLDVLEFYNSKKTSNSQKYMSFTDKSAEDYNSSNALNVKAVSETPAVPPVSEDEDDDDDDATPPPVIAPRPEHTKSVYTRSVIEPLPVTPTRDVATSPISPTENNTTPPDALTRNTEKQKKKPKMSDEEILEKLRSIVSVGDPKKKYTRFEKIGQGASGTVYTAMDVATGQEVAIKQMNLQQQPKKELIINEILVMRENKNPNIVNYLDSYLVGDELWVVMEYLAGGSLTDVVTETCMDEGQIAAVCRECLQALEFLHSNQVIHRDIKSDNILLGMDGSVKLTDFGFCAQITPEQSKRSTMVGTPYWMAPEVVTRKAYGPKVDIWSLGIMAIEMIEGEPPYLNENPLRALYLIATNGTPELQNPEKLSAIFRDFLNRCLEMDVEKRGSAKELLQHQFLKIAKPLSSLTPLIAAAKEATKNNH

Row | Compound | inhibition at 1 µM (DDR2; [1]) [%] | inhibition at 1 µM (DDR2; [2]) [%] | inhibition at 1 µM (FGFR1) [%] | inhibition at 1 µM (FER) [%] | inhibition at 1 µM (ERBB2) [%] | inhibition at 1 µM (BMX) [%] | inhibition at 1 µM (EGFR) [%] | inhibition at 1 µM (MAP4K5) [%] | inhibition at 1 µM (FGR) [%] | inhibition at 1 µM (PAK1) [%] | inhibition at 1 µM (KIT) [%] | inhibition at 1 µM (PDGFRbeta) [%] | inhibition at 1 µM (LIMK2; at 1 μM, read-out: inhibition of LIMK2) [%] | inhibition at 1 µM (LIMK2; [3]) [%]
1 | O=C(c1ccc(Oc2ccccc2)cc1Cl)c1c[nH]c2ncnc(N[C@@H]3CC[C@@H](CO)OC3)c12 [ARQ-531, (2-chloro-4-phenoxyphenyl) (4-(((3R,6S)-6-(hydroxymethyl)tetrahydro-2H-pyran-3-yl)amino)-7H-pyrrolo[2,3-d]pyrimidin-5-yl) methanone] | ≥ 50 | 50 to 69 | 50 to 69 | 70 to 89 | 70 to 89 | 90 to 100 | 70 to 89 | 50 to 69 | 70 to 89 | 50 to 69 | 90 to 100 | < 50 |  | 
2 | Cc1cccnc1[C@H]1CCC[C@@H](c2ncccc2C)N1CCN1CCN(C(=O)c2ccc(-c3cc4c(-c5cccc(NC(=O)c6ccccc6)c5C)ncnc4[nH]3)cc2)CC1 [Compound I-10, N-(3-(6-(4-(4-(2-((2R,6S)-2,6-bis(3-methylpyridin-2-yl)piperidin-1-yl)ethyl)piperazine-1-carbonyl)phenyl)-7H-pyrrolo[2,3-d]pyrimidin-4-yl)-2-methylphenyl)benzamide] | 50 to 89 | 70 to 89 | < 50 | < 50 | < 50 | 70 to 89 | < 50 | < 50 | < 50 | < 50 | < 50 | < 50 | 50 to 89 | 50 to 69
3 | COc1ccc(F)cc1C(=O)NCc1ccc(-c2nn([C@@H](C)C(F)(F)F)c(N)c2C(N)=O)cc1 [LOXO-305, pirtobrutinib] |  | < 50 | < 50 | < 50 | 50 to 69 | 50 to 69 | < 50 | < 50 | < 50 | < 50 | < 50 | < 50 |  | < 50
4 | C=CC(=O)N1CCC([C@@H]2CCNc3c(C(N)=O)c(-c4ccc(Oc5ccccc5)cc4)nn32)CC1 [Zanubrutinib, (7S)-2-(4-phenoxyphenyl)-7-(1-prop-2-enoylpiperidin-4-yl)-4,5,6,7-tetrahydropyrazolo[1,5-a]pyrimidine-3-carboxamide] |  | < 50 | < 50 | < 50 | < 50 |  | < 50 | < 50 | < 50 | < 50 | < 50 | < 50 |  | < 50
